Source: patent US7517960B2, “Rat KCNQ5 voltage-gated potassium channel” (Wyeth, priority 2006, dated 2009)

Experiments:
[1] = system: rat KCNQ5; assay: Two-electrode voltage clamp recording of rat KCNQ5 expressed in Xenopus laevis oocytes; type: cell-based; conditions: homomeric rKCNQ5, cRNA-injected Xenopus laevis oocytes, recorded 48-72 hours after injection, FIG. 1B
Procedure: The electrodes were filled with 3 M KCl solution with resistances ranging from 0.5 to 1.5 MΩ.
For Examples 4 and 5, the cRNAs of rKONQ5 were injected directly into Xenopus laevis oocytes and the electrophysiological recordings were performed 48-72 hours after RNA injection using two-electrode voltage clamp recording (see Jow F and Wang K-W, Mol. Brain Res. 80:269-78 (2000) for methods). The electrodes were filled with 3 M KCI solution with resistances ranging from 0.5 to 1.5 MΩ. The bath solution pf pH 7.4 was a “ND96” containing the following (in mM): NaCI, 96; KCl, 2; CaCl21.8; MgCl2 1; HEPES, 10 (see FIG. 1A).

[2] = system: rat KCNQ5/KCNQ3 heteromeric channels; assay: Two-electrode voltage clamp recording of rKCNQ5 co-expressed with KCNQ3 in Xenopus laevis oocytes; type: cell-based; conditions: FIG. 2D
Text: There is a significant increase in the current amplitude of the rat KCNQ5/KCNQ3 heteromeric channels compared with that of the rKCNQ5 or rat KCNQ3 homomeric channels. The homomeric channels here refer to those with only one type of channel subunits expressed in Xenopus laevis oocytes. In this case, it refers to either rKCNQ5 alone (FIG. 2A) or rat KCNQ3 alone (FIG. 2B). Heteromeric channels means that the functional channels are composed of subunits of both rKCNQ5 and rat KCNQ3 (FIG. 2C). It is believed that those functional channels are composed of 4 such subunits. Therefore, the functional channels are “tetramers”. If the 4 subunits are the same type (e.g. 4 rKCNQ5 subunits, or 4 rat KCNQ3 subunits), there are known as “homotetramers”. If the 4 subunits in these functional channels are different (e.g., 2 rKCNQ5+2 rat KCNQ3, or 3 rat KCNQ5+1 rat KCNQ3, etc.), they are known as “heterotetramers”.
For Examples 4 and 5, the cRNAs of rKONQ5 were injected directly into Xenopus laevis oocytes and the electrophysiological recordings were performed 48-72 hours after RNA injection using two-electrode voltage clamp recording (see Jow F and Wang K-W, Mol. Brain Res. 80:269-78 (2000) for methods). The electrodes were filled with 3 M KCI solution with resistances ranging from 0.5 to 1.5 MΩ. […]

SMILES: O=C1c2ccccc2C(Cc2ccncc2)(Cc2ccncc2)c2ccccc21 [XE991]
- KCNQ5 channel current amplitude [1]: decreased the current amplitude
- current amplitudes of heterotetramer channels [2]: decrease
